Data reported in patent US12281122B1, “PI3K inhibitors” (Cogent Biosciences, Inc., priority 2023, dated 2025).

Assays:
[1] = tested on: T47D (PI3Kα-H1047R) cell line; test: HTRF phospho-AKT(S473) cell assay in T47D cells; type: cell-based, human
Procedure, shortened: (§1)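 T47D: RPMI + 10% FBS + 0.2 units/mL insulin, top 5 μM. SKBR3: McCoy's 5A + 10% FBS, top 10 μM, 70 ng/ml PDGF-BB last 15 min. Both: 12-pt 1:3, 2 h, 37° C, max 0.5% DMSO; HTRF pAKT(S473); IC50.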

[2] = tested on: SKBR3 (PI3Kα-Wild Type) cell line; test: HTRF phospho-AKT(S473) cell assay in SKBR3 cells; type: cell-based, human
Procedure, shortened: as §1

[3] = Homo sapiens; T47D (PI3Kα-H1047R) cells, HTRF phospho-AKT(S473), 2 hours compound incubation
[4] = Homo sapiens, SK-BR-3; SKBR3 (PI3Kα-Wild Type) cells, HTRF phospho-AKT(S473), 2 hours compound incubation, PDGF-BB stimulated
[5] = Homo sapiens; HTRF phospho-AKT(S473), T47D (PI3Kα-H1047R) cells, 2 hours compound incubation
[6] = Homo sapiens, SK-BR-3; HTRF phospho-AKT(S473), SKBR3 (PI3Kα-Wild Type) cells, 2 hours compound incubation, PDGF-BB stimulated

In the case of `Cc1cc([C@@H](C)Nc2ccc(Cl)nc2C(=O)NS(C)(=O)=O)c2nc(N3Cc4cn(CC(C)(C)O)nc4C3)n(C)c(=O)c2c1` [Compound 216, (R)-6-chloro-3-((1-(2-(2-(2-hydroxy-2-methylpropyl)-2,6-dihydropyrrolo[3,4-c]pyrazol-5(4H)-yl)-3,6-dimethyl-4-oxo-3,4-dihydroquinazolin-8-yl)ethyl)amino)-N-(methylsulfonyl) picolinamide], the IC50 [1, 3] is reported as < 0.25 µM and the IC50 [2, 4] is reported as 1 to 5 µM.
With `Cc1cc([C@@H](C)Nc2ccc(Cl)nc2C(=O)NS(C)(=O)=O)c2nc(N3CCN(c4ccc(C#N)cn4)[C@H](C)C3)n(C)c(=O)c2c1` [Compound 200, 6-chloro-3-(((R)-1-(2-((R)-4-(5-cyanopyridin-2-yl)-3-methylpiperazin-1-yl)-3,6-dimethyl-4-oxo-3,4-dihydroquinazolin-8-yl)ethyl)amino)-N-(methylsulfonyl) picolinamide] the IC50 [1, 3] was < 0.25 µM and the IC50 [2, 4] was 1 to 5 µM.
For `Cc1cc([C@@H](C)Nc2ccc(Cl)nc2C(=O)NS(C)(=O)=O)c2nc([C@H]3[C@@H]4CN(c5ncc(F)cn5)C[C@@H]43)n(C)c(=O)c2c1` [Compound 827, 6-chloro-3-(((R)-1-(2-((1R,5S,6r)-3-(5-fluoropyrimidin-2-yl)-3-azabicyclo[3.1.0]hexan-6-yl)-3,6-dimethyl-4-oxo-3,4-dihydroquinazolin-8-yl)ethyl)amino)-N-(methylsulfonyl) picolinamide], the IC50 [1, 5] was 0.5 to 1 µM and the IC50 [2, 6] was ≥ 5 µM.
In the case of `Cc1cc([C@@H](C)Nc2ccc(Cl)nc2C(=O)NS(C)(=O)=O)c2nc(N3C[C@@H]4[C@H](C3)[C@H]4c3noc(C)n3)n(C)c(=O)c2c1` [Compound 465, 6-chloro-3-(((R)-1-(3,6-dimethyl-2-((1R,5S,6R)-6-(5-methyl-1,2,4-oxadiazol-3-yl)-3-azabicyclo[3.1.0]hexan-3-yl)-4-oxo-3,4-dihydroquinazolin-8-yl)ethyl)amino)-N-(methylsulfonyl) picolinamide], the IC50 [1, 5] is reported as < 0.25 µM and the IC50 [2, 6] is reported as 1 to 5 µM.
Work on `Cc1cc([C@@H](C)Nc2ccc(Cl)nc2C(=O)NS(C)(=O)=O)c2nc(N3CCC(c4nc(C)n(C(F)F)n4)CC3)n(C)c(=O)c2c1` [Compound 723, (R)-6-chloro-3-((1-(2-(4-(1-(difluoromethyl)-5-methyl-1H-1,2,4-triazol-3-yl)piperidin-1-yl)-3,6-dimethyl-4-oxo-3,4-dihydroquinazolin-8-yl)ethyl)amino)-N-(methylsulfonyl) picolinamide] yielded an IC50 [1, 5] of 0.25 to 0.5 µM and an IC50 [2, 6] of 1 to 5 µM.
For `Cc1cc([C@@H](C)Nc2ccc(Cl)nc2C(=O)NS(C)(=O)=O)c2nc(-c3ccc(OCCN4CCOCC4)cc3)n(C)c(=O)c2c1` [Compound 793, (R)-6-chloro-3-((1-(3,6-dimethyl-2-(4-(2-morpholinoethoxy)phenyl)-4-oxo-3,4-dihydroquinazolin-8-yl)ethyl)amino)-N-(methylsulfonyl) picolinamide], the IC50 [1, 5] was < 0.25 µM and the IC50 [2, 6] was ≥ 5 µM.
For `Cc1cc([C@@H](C)Nc2ccc(Cl)nc2C(=O)NS(C)(=O)=O)c2nc(N3CCC(c4ncnn4C(C)C)CC3)n(C)c(=O)c2c1` [Compound 719, (R)-6-chloro-3-((1-(2-(4-(1-isopropyl-1H-1,2,4-triazol-5-yl)piperidin-1-yl)-3,6-dimethyl-4-oxo-3,4-dihydroquinazolin-8-yl)ethyl)amino)-N-(methylsulfonyl) picolinamide], the IC50 [1, 5] was 0.25 to 0.5 µM and the IC50 [2, 6] was ≥ 5 µM.
For `CC(=O)N1CCC(c2ccc(-c3nc4c([C@@H](C)Nc5ccc(Cl)nc5C(=O)NS(C)(=O)=O)cc(C)cc4c(=O)n3C)cc2F)CC1` [Compound 786, (R)-3-((1-(2-(4-(1-acetylpiperidin-4-yl)-3-fluorophenyl)-3,6-dimethyl-4-oxo-3,4-dihydroquinazolin-8-yl)ethyl)amino)-6-chloro-N-(methylsulfonyl) picolinamide], the IC50 [1, 5] was < 0.25 µM and the IC50 [2, 6] was 1 to 5 µM.
With `Cc1cc([C@@H](C)Nc2ccc(Cl)nc2C(=O)NS(C)(=O)=O)c2nc(N3CCC[C@@H](c4ccncc4)C3)n(C)c(=O)c2c1` (relative stereo) [Compound 207, 6-chloro-3-(((R)-1-(3,6-dimethyl-4-oxo-2-((R*)-3-(pyridin-4-yl)piperidin-1-yl)-3,4-dihydroquinazolin-8-yl)ethyl)amino)-N-(methylsulfonyl) picolinamide] the IC50 [1, 3] was < 0.25 µM and the IC50 [2, 4] was 1 to 5 µM.
For `Cc1cc([C@@H](C)Nc2ccc(Cl)nc2C(=O)NS(C)(=O)=O)c2nc(N3Cc4cn(CC(F)F)nc4C3)n(C)c(=O)c2c1` [Compound 230, (R)-6-chloro-3-((1-(2-(2-(2,2-difluoroethyl)-2,6-dihydropyrrolo[3,4-c]pyrazol-5(4H)-yl)-3,6-dimethyl-4-oxo-3,4-dihydroquinazolin-8-yl)ethyl)amino)-N-(methylsulfonyl) picolinamide], the IC50 [1, 3] was < 0.25 µM and the IC50 [2, 4] was 1 to 5 µM.
`Cc1cc([C@@H](C)Nc2ccc(Cl)nc2C(=O)NS(C)(=O)=O)c2nc(-c3ccc(-c4cnn(C)c4)nc3)n(C)c(=O)c2c1` [Compound 241, (R)-6-chloro-3-((1-(3,6-dimethyl-2-(6-(1-methyl-1H-pyrazol-4-yl)pyridin-3-yl)-4-oxo-3,4-dihydroquinazolin-8-yl)ethyl)amino)-N-(methylsulfonyl) picolinamide] was tested, and the IC50 [1, 3] was < 0.25 µM and the IC50 [2, 4] was 1 to 5 µM.
`COc1cnc(C2CCN(c3nc4c([C@@H](C)Nc5ccc(Cl)nc5C(=O)NS(C)(=O)=O)cc(C)cc4c(=O)n3C)CC2)nc1` [Compound 487, (R)-6-chloro-3-((1-(2-(4-(5-methoxypyrimidin-2-yl)piperidin-1-yl)-3,6-dimethyl-4-oxo-3,4-dihydroquinazolin-8-yl)ethyl)amino)-N-(methylsulfonyl) picolinamide] was tested, and the IC50 [1, 5] was 0.25 to 0.5 µM and the IC50 [2, 6] was 1 to 5 µM.
For `Cc1cc([C@@H](C)Nc2ccc(Cl)nc2C(=O)NS(C)(=O)=O)c2nc(N3CCN(c4cc(C)nc(C)n4)CC3)n(C)c(=O)c2c1` [Compound 617, (R)-6-chloro-3-((1-(2-(4-(2,6-dimethylpyrimidin-4-yl)piperazin-1-yl)-3,6-dimethyl-4-oxo-3,4-dihydroquinazolin-8-yl)ethyl)amino)-N-(methylsulfonyl) picolinamide], the IC50 [1, 5] was 0.25 to 0.5 µM and the IC50 [2, 6] was ≥ 5 µM.
In the case of `Cc1cc([C@@H](C)Nc2ccc(Cl)nc2C(=O)NS(C)(=O)=O)c2nc(N3Cc4cnc(C)cc4C3)n(C)c(=O)c2c1` [Compound 516, (R)-6-chloro-3-((1-(3,6-dimethyl-2-(6-methyl-1,3-dihydro-2H-pyrrolo[3,4-c]pyridin-2-yl)-4-oxo-3,4-dihydroquinazolin-8-yl)ethyl)amino)-N-(methylsulfonyl) picolinamide], the IC50 [1, 5] is reported as < 0.25 µM and the IC50 [2, 6] is reported as 1 to 5 µM.
In the case of `Cc1cc([C@@H](C)Nc2ccc(Cl)nc2C(=O)NS(C)(=O)=O)c2nc(N3C[C@@H]4[C@H](C3)[C@H]4c3cn(C)nn3)n(C)c(=O)c2c1` [Compound 387, 6-chloro-3-(((R)-1-(3,6-dimethyl-2-((1R,5S,6R)-6-(1-methyl-1H-1,2,3-triazol-4-yl)-3-azabicyclo[3.1.0]hexan-3-yl)-4-oxo-3,4-dihydroquinazolin-8-yl)ethyl)amino)-N-(methylsulfonyl) picolinamide], the IC50 [1, 3] is reported as < 0.25 µM and the IC50 [2, 4] is reported as 1 to 5 µM.
